Laboratory results taken from patent US12606571B2, “Macrocyclic compounds and uses thereof” (TURNING POINT THERAPEUTICS, INC., priority 2017, dated 2026).
Like-named read-outs stand apart in the source and are kept apart here.

Legend:
[1] = system: MET phosphorylation and downstream signaling in SNU-5 cells; assay: Immunoblotting for cellular kinase phosphorylation, SNU-5; format: cell-based, human; conditions: 4 hour incubation
Protocol: Half a million cells per well were seeded in 24 well plate for 24 hrs, and then treated with compounds for 4 hours. Cells were collected after treatment and lysed in RIPA buffer (50 mM Tris, pH 7.4, 150 mM NaCl, 1% NP-40, 0.5% Deoxycholate, 0.1% SDS) supplemented with 10 mM EDTA, 1× Halt protease and phosphatase inhibitors (Thermo Scientific). […] Membranes were incubated with chemiluminescent substrate for 5 min at room temperature (SuperSignal West Femto, Thermo Scientific). The chemiluminescent images were acquired with a C-DiGit Imaging System (LI-COR Biosciences). The relative density of the chemiluminescent bands were quantified via Image Studio Digits from LICOR. The half inhibitory concentration (IC50) value is calculated using non-linear regression analysis through GraphPad Prism software (GraphPad, Inc., San Diego, CA).

[2] = system: tumor associated immune cells in MC38 tumors; assay: MC38 syngeneic model PD biomarker study (FACS of tumor associated immune cells)
Protocol: MC38 tumors were collected on day 7 and day 11. The collected tumors were dissociated using MiltenyiGentleMax. FACS analysis of tumors were performed for the tumor associated immune cells including tumor associated macrophages (TAM) and TAM subtypes (M1 and M2), myeloid derived suppression cells (MDSC), cytotoxic T lymphocytes (CTL, i.e. CD8+ T cells), CD4+ T cells, and regulatory T cells (Treg).
FACS analysis of tumors were performed on day 7 and day 11 for the tumor associated immune cells including tumor associated macrophages (TAM) and TAM subtypes (MI and M2), myeloid derived suppression cells (MDSC), cytotoxic T lymphocytes (CTL, i.e. CD8+ T cells), CD4+ T cells, and regulatory T cells (Treg).

M-NFS-60 cells = assay: M-NFS-60 cell proliferation at varied CSF-1; format: cell-based; conditions: Mus musculus
Protocol: Two thousand cells per well were seeded in 384 well white plate for 24 hrs, and then treated with compounds for 72 hours (37° C., 5% CO2). Cell proliferation was measured using CellTiter-Glo luciferase-based ATP detection assay (Promega) following the manufacturer's protocol. IC50 determinations were performed using GraphPad Prism software (GraphPad, Inc., San Diego, CA).
The anti-cell proliferation activities against MET and CSF1R driven cell lines were conducted with MKN-45, SNU-5, Ba/F3 TEL-CSF1R cells, and M-NFS-60 respectively.

HCC827 cells [3] = assay: Apoptosis of HCC827 cells; format: cell-based, human; conditions: 48 hour incubation, combination with AZD9291
HCC827 cells [4] = assay: Scratch wound healing assay, HCC827; format: cell-based, human; conditions: 36-48 hours treatment
Protocol: MKN-45 or HCC827 cells were seeded in 24-well plate. After 12-24 hours, confluent cell monolayers were gently scraped with a sterile pipette tip to form a scratch. The plates were washed with fresh medium, and the cells were incubated with medium alone or medium containing various concentration of compounds. After 36-48 hours, the plates were examined and recorded by an EVOS FL microscopy (Life Technology) to monitor rescaling of the cell monolayer.

MKN-45 tumors = assay: MKN-45 gastric adenocarcinoma xenograft model; format: in vivo, mouse
Protocol: MKN-45 and Ba/F3 ETV6-CSF1R cells were cultured using standard techniques in RPMI-1640 medium (Corning, Inc) with 10% fetal bovine serum (Thermo Fisher Scientific, Inc) at 37° C. in a humidified atmosphere with 5% CO2. For implantation, cells were harvested and pelleted by centrifugation at 250 g for 2 minutes. Cells were washed once and resuspended in serum-free medium supplemented with 50% matrigel (v/v).
Female athymic nude mice (5-8 weeks of age) were obtained from Charles River Laboratory and were housed in Innovive IVC disposable cages on HEPA filtered ventilated racks with ad libitum access to rodent chow and water. Five million cells in 100 μL serum-free medium supplemented with 50% matrigel (Corning, Inc) were implanted subcutaneously in the right flank region of the mouse. Tumor size and body weight were measured on designated days. Tumor size was measured with an electronic caliper and tumor volume was calculated as the product of length*width^2*0.5.
The Met gene amplification in MKN-45 cells underlies the molecular mechanism for tumor growth. Athymic nude mice bearing MKN-45 tumors (at the average tumor size of 210 mm^3) were dosed with Compound 5 orally BID for twelve days (FIG. 7). The control group of mice were given vehicle only. Tumor volume (TMV) was measured by caliper on the indicated days and is shown at mean±sem in FIG. 7. […] Tumor growth inhibition (TGI) was calculated as 100%*{1−[(TMVTreated Last Day of Treatment−TMVTreated First Day of Treatment)/(TMVControl on Last Day of Treatment−TMVControl on First Day of Treatment)]} when TMVTreated Last Day of Treatment≥TMVTreated First Day of Treatment. In the case of TMVTreated Last Day of Treatment<TMVTreated First Day of Treatment., tumor regression (REG) was calculated as 100%*(1−TMVTreated Last Day of Treatment/TMVTreated First Day of Treatment). […] Tumor size was reduced in 5 out 10 mice treated with Compound 5 at 10 mg/kg, BID and in 9 out of 10 mice treated with Compound 5 at 30 mg/kg.

LU2503 tumors = assay: LU2503 patient derived xenograft (PDX) NSCLC model
Protocol: Primary human tumor xenograft model LU2503 tumors were grown in stock mice. Tumor fragments (2-3 mm in diameter) were harvested from stock mice and inoculated into the right front back of each mouse for tumor development. 16 mice were enrolled in the study. All animals were randomly allocated to the 2 different study groups. Tumor size and body weight were measured on designated days. Tumor size was measured using a caliper and tumor volume was calculated as the product of length*width^2*0.5.

MC38 syngeneic tumors = assay: Subcutaneous MC38 syngeneic mouse tumor model, tumor volume and body weight; format: in vivo
Protocol: C57BL/6J female mice (6 weeks) were purchased from the Jackson Laboratory, and maintained in accordance with the guidelines for the care and use of laboratory animals. Half million MC38 cancer cells in 100 μL serum-free medium were implanted subcutaneously in the right flank region of the mouse. Tumor size and body weight were measured on designated days. Tumor size was measured with an electronic caliper and tumor volume was calculated as the product of length*width^2*0.5. […] Vehicle control, Compound 5, PD-1 antibody or Compound 5 plus PD-1 antibody were administered orally (BID) at determined doses.
Anti-tumor effects of Compound 5 on MC38 syngeneic tumors was analyzed by tumor volume. The average tumor volume of vehicle control group (G1) on day 7 was 696.3±299.7, while Compound 5 treated group (G2) was 473.5±170.4 mm^3. On day 11, the average tumor volume of G1 and G2 were 1142.6±290.0 and 610.4±151.8mm^3, respectively.

## CCN1Cc2c(ccc(F)c2C#N)O[C@@H](C)CNC(=O)c2c(N)nn3ccc1nc23 [Compound 5, (7S)-3-amino-14-ethyl-11-fluoro-7-methyl-4-oxo-4,5,6,7,13,14-hexahydro-1,15-ethenopyrazolo[4,3-f][1,4,8,10]benzoxatriazacyclotridecine-12-carbonitrile]
[1]
  MET phosphorylation (gel): inhibited
[2]; day 7
  TAM cells vs control: trend for a reduction
  populations of TAM, M1, M2, MDSC, CTL, CD4+ T cells, Treg in CD45+ tumor leukocytes vs control: no statistically significant changes
[2]; day 11
  CD4+ T cells or Treg cells vs control: no statistically significant change
  CTL cells in the total tumor leukocyte population vs control: trend of increase
  CTL in the CD3+ lymphocyte population vs control: statistically significant increase
  M1 TAM in the total tumor leukocyte population vs control: increase
  M2 TAM in the total tumor leukocyte population vs control: decrease
  MDSC populations vs control: concurrent increase
  TAM in the total tumor leukocyte population vs control: statistically significant decrease
M-NFS-60 cells; read-out: M-NFS-60 IC50, CSF-1 0 ng/mL
  IC50: 0.3 nM
M-NFS-60 cells; read-out: M-NFS-60 IC50, CSF-1 0.3 ng/mL
  IC50: 3 nM
M-NFS-60 cells; read-out: M-NFS-60 IC50, CSF-1 1 ng/mL
  IC50: 11.6 nM
M-NFS-60 cells; read-out: M-NFS-60 IC50, CSF-1 3 ng/mL
  IC50: 78.2 nM
M-NFS-60 cells; read-out: M-NFS-60 IC50, CSF-1 10 ng/mL
  IC50: 84.1 nM
M-NFS-60 cells; read-out: M-NFS-60 IC50, CSF-1 30 ng/mL
  IC50: 181 nM
M-NFS-60 cells; read-out: M-NFS-60 IC50, CSF-1 100 ng/mL
  IC50: 174 nM
HCC827 cells [3]
  apoptosis of HCC827 cells: synergized with AZD9291
HCC827 cells [4]
  cell migration of HCC827 cells, wound healing: inhibited
MKN-45 tumors; 3 mg/kg, BID, oral, twelve days
  tumor growth inhibition (TGI): 47%
MKN-45 tumors; 10 mg/kg, BID, oral, twelve days
  tumor regression (REG): 6%
MKN-45 tumors; 30 mg/kg
  mice with reduced tumor size: 9 out of 10
MKN-45 tumors; 30 mg/kg, BID, oral, twelve days
  tumor regression (REG): 44%
MKN-45 tumors; treated groups 3, 10, 30 mg/kg BID, p<0.05
  mean tumor volume (TMV) compared to control group: significantly lower
LU2503 tumors; 15 mg/kg, BID for 13 days
  tumor regression: 85%
LU2503 tumors; 21 days of BID treatment at 15 mg/kg
  body weight: No body weight loss
MC38 syngeneic tumors; 15 mg/kg BID for 7 or 11 days
  body weight and overt abnormality: No body weight loss and overt abnormality
MC38 syngeneic tumors; day 7, 15 mg/kg BID
  average tumor volume: 473.5±170.4 mm^3
MC38 syngeneic tumors; day 11, 15 mg/kg BID
  average tumor volume: 610.4±151.8 mm^3
